The source of these data is patent US11903927B2, “Combination treatment of cancer” (Scandion Oncology A/S, priority 2016, dated 2024).

Data set [1] has as its system human HT29 colon cancer cell line. The data set can be described thus: HT29 colon tumour xenograft. The settings on record: mice; NS3728 80 mg/kg PO, paclitaxel 5 mg/kg IP, 5-flourouracil 30 mg/kg IP, alone or combined; dosing days 4-8, 11-15, 18-22. The class given is in vivo. As for the experimental part:
The in vivo antitumor effect of NS3728 on the human HT29 colon cancer cell line were tested as monotherapy (80 mg/kg) respectively in combination with paclitaxel (5 mg/kg) or 5-flourouracil (30 mg/kg) in two independent experimental series. NS3728 was given per oral (PO), whereas both paclitaxel and 5-flourouracil were dosed intraperitoneally (IP) by injection.
The dosing occurred in periods (days 4-8; days 11-15, days 18-22) with daily dosing of both NS3728 and cytotoxic drug, interrupted by dosing holidays.

The subject of another data set is VRAC. As to conditions: read-out: IC50 as VRAC blocker; cited from earlier work.
Data set [2] has as its system docetaxel resistant MCF-7 breast cancer cells. The data set can be described thus: MTT cell viability, docetaxel resistant MCF-7. It counts as cell-based, human. As to conditions: 72 hours. The source says:
(§1) Breast cancer is a heterogenous disease and at least 6 subtypes of breast cancer have been described previously by Soerlie et al (PMID: 11553815). As a major difference, breast cancer can be divided into hormone (estrogen and progesterone) receptor positive and hormone receptor negative breast cancer. We have in our experiments included these two major subtypes. We established human breast cancer cell lines that are resistant to the chemotherapy docetaxel as described in Hansen et al 2015 (PMID: 25596703). These cell lines are MCF-7 and MDA-MB-231.
(§2) Subsequently, NS3728, docetaxel or combinations of the two drugs were added for 72 hours before cell viability was determined. […] Each data point was carried out in triplicate.

For data set [3], the system named is Docetaxel resistant MDA-MB-231 breast cancer cells. The data set can be described thus: MTT cell viability, docetaxel resistant MDA-MB-231. The class given is cell-based, human.
Text: as §1, §2

The procedure of data set [4]:
The in vivo anti-tumor effect of NS3728 on C6 glioma cells given either as monotherapy (40 mg/kg/day) or in combination with temozolomide (Temodal, 25 or 5 mg/kg/day) was tested in two separate experiments, using either the xenograft method or the subcutaneous air sac model (SAS; see Lichtenberg, J., P. J. Hjarnaa, P. E. Kristjansen, D. Hansen & L. Binderup: The rat subcutaneous air sac mode: A quantitative assay of antiangiogenesis in induced vessels Pharmacology & Toxicology, 1999, 84, 34-40).
In the first study 5 million C6 rat glioma cells were inoculated into the flank of Fisher rats.

For a further data set, the system named is C6 glioma cells. Put plainly: C6 glioma subcutaneous air sac (SAS) model. As to conditions: 2.5 million C6 cells on air sac membrane; NS3728 40 mg/kg/day oral, temozolomide 5 mg/kg/day, alone or combined; 10 days of treatment. It counts as in vivo, rat. Here is the method: In the second study the tumour growth was retarded by inoculating only half the number of cells (2.5 million of C6 cells per animal) and making use of the subcutaneous air sac (SAS) technique. In brief, the rats were anaesthetized with CO2/O2 and 10-15 ml of air was introduced dorsally by subcutaneous injections to produce an air sac located approximately 4-5 cm behind the head. The wall of the air sac became progressively thicker with time and after 10-14 days a sufficient lining of cells with the appearance of a transparent membrane had been established. The C6 glioma cells were inoculated in the rats directly on the membrane. The treatment was started at the day of inoculation and the study was terminated on day 10 of treatment.

For data set [5], the system named is SN-38 resistant HCT116 CRC cancer cells. Put plainly: MTT cell viability, SN-38 resistant HCT116. The class given is cell-based, human. Here is the method: (§3) These cell lines are HCT116, HT29 and LoVo.
(§4) Each data point was carried out in triplicate.

Data set [6] has as its system oxaliplatin resistant HT29 CRC cancer cells. Put plainly: MTT cell viability, oxaliplatin resistant HT29. The class given is cell-based, human. Here is the method:
as §3, §4

For data set [7], the system named is tamoxifen-resistant MCF-7/LCC2 cells. The data set can be described thus: MTT cell viability, tamoxifen resistant MCF-7/LCC2. The class given is cell-based, human. As to conditions: 40 μM NS3728, 72 hours. Here is the method: These cell lines are MCF-7/LCC2. We also established human breast cancer cell lines that are resistant to the anti-estrogen Fulvestrant as described in Brünner et al 1997 (PMID: 9270017). MCF-7 is an estrogen and progesterone receptor positive cell line. […] Subsequently, NS3728, docetaxel or combinations of the two drugs were added for 72 hours before cell viability was determined. […] Each data point was carried out in triplicate.

Data set [8] has as its system fulvestrant-resistant MCF-7/LCC9 cells. The data set can be described thus: MTT cell viability, fulvestrant resistant MCF-7/LCC9. The class given is cell-based, human. Here is the method: These cell lines are MCF-7/LCC2. We also established human breast cancer cell lines that are resistant to the anti-estrogen Fulvestrant as described in Brünner et al 1997 (PMID: 9270017). MCF-7 is an estrogen and progesterone receptor positive cell line.
as §2

Data set [9] relates to SN-38 resistant HT29 CRC cancer cells.
Procedure: (§5) The cells were seeded in 96-well plates (10,000 cells/well) and allowed to adhere for 24 hours. Subsequently, NS3728, OXP, SN-38 or combinations of the drugs were added for 48 hours before cell viability was determined. All values are expressed in percentage of untreated cells (named: “no treatment”). “DMSO” refers to the solvent control as both NS3728 and chemotherapeutic drugs are diluted in DMSO. Thus, the DMSO (Dimethyl sulfoxide) control is included to investigate any potential effect on cell viability by the organic solvent. Each data point was carried out in triplicate.
For data set [10], the system named is SN-38 resistant LoVo CRC cancer cells.
Procedure: as §5
Another data set deals with cancer cells. The settings on record: in vitro; cited from earlier work.
The test system of data set [11] is SN-38 resistant LoVo CRC cancer cells. Put plainly: cells. As to conditions: Homo sapiens, 48 h, read-out: cell viability.
Procedure: as §5

Read-outs that look alike come from different tables or passages of the source.

As usually defined, the IC50 is the point on the concentration scale where inhibition reaches its midpoint. What is called viability is a read-out of living cells in per cent, often relative to untreated cells.

Procedure for HCT116 parental cells: (§6) The cells were seeded in 96-well plates (10,000 cells/well) and allowed to adhere for 24 hours. Subsequently, NS3728, OXP, SN-38 or combinations of NS3728 with one of the cytotoxic drugs were added for 48 hours before cell viability was determined. All values are expressed in percentage of untreated cells (named: “no treatment”). “DMSO” refers to the solvent control as both NS3728 and chemotherapeutic drugs are diluted in DMSO. Thus, the DMSO (Dimethyl sulfoxide) control is included to investigate any potential effect on cell viability by the organic solvent. Each data point was carried out in triplicate.
Procedure for HT29 parental cells: as §6
Procedure for LoVo parental cells: as §6

In the case of `O=c1[nH]cc(F)c(=O)[nH]1` [5-flourouracil, 5-fluorouracil], the “tumour volume growth curves” value in [1] is recorded as “mild (non-significant) depression of the growth curves”.

In the case of `O=S(=O)(O)c1cc(N=C=S)ccc1C=Cc1ccc(N=C=S)cc1S(=O)(=O)O` [DIDS], the IC50 in the data set on VRAC is 26000 nM.

`CC(=O)O[C@@]12CO[C@@H]1C[C@H](O)[C@@]1(C)C(=O)[C@H](O)C3=C(C)[C@@H](OC(=O)[C@H](O)[C@@H](NC(=O)OC(C)(C)C)c4ccccc4)C[C@@](O)([C@@H](OC(=O)c4ccccc4)[C@H]21)C3(C)C` [Docetaxel, docetaxel, reference compound]: the cell viability result in data set [2] (65 nM Docetaxel monotherapy) is reported as “did not decrease cell viability”; in [3] (150 nM Docetaxel, 72 hours), “about 50 % of untreated controls”.

As to `O=C(Nc1cc(C(F)(F)F)cc(C(F)(F)F)c1)Nc1ccc(Br)cc1-c1nnn[nH]1` [NS3728], the “tumour growth rate / anti-tumor effect” value in [4] (5 million C6 cells, flank of Fisher rats, NS3728 40 mg/kg/day oral, temozolomide 25 mg/kg/day, alone or combined, terminated day 4 of treatment) is “neither NS3728 (40 mg/kg/day) nor temozolomide (25 mg/kg/day) exhibited any significant anti-tumor effect”. The “tumour growth inhibition as measured by tumour weight” value in the data set with C6 glioma cells is recorded as “significant inhibition of tumour growth”. In addition, in [1], the “tumour volume growth curves” value is given as “mild (non-significant) depression of the growth curves”. The cell viability result in data set [2] (40 μM NS3728 monotherapy) is “did not decrease cell viability”; in [3] (50 μM NS3728, 72 hours), “did not decrease cell viability”; in [5] (30 μM NS3728, 48 hours), “about 85 % of untreated cells”; in data set [6] (20 μM NS3728, 48 hours), “about 85 % of untreated cells”; in data set [7] it was 70 % of untreated control; in data set [8] (40 μM NS3728, 72 hours) it was 60 % of untreated control. Also, the cell viability result with HCT116 parental cells (40 μM NS3728, SN-38 experiment, 48 hours) is recorded as “about 50 % of untreated cells”; in the data set on HCT116 parental cells (50 μM NS3728, SN-38 experiment, 48 hours), “about 50 % of untreated cells”; in the data set with HCT116 parental cells (NS3728 alone in the OXP experiment (concentration not given in the sentence), 48 hours) it was “about 50 % of untreated cells”; in the data set with HT29 parental cells (40 μM NS3728, 48 hours) it was “about 90 % of untreated cells”; with HT29 parental cells (50 μM NS3728, 48 hours), “about 77 % of untreated cells”; in the data set with LoVo parental cells (40 μM NS3728, 48 hours), “about 45 % of untreated cells”. Moreover, the cell viability entry with LoVo parental cells (50 μM NS3728, 48 hours) is “about 38 % of untreated cells”; in [9] (30 μM NS3728, 48 hours (increased viability)) it was “about 120 % of untreated cells”; in data set [9] (40 μM NS3728, 48 hours), “no effect on cell viability”; in [9] (50 μM NS3728, 48 hours), “about 85 % of untreated cells”; in data set [10] (30 μM NS3728, 48 hours), “about 80 % of untreated cells”; in data set [10] (50 μM NS3728, 48 hours) it was “about 50 % of untreated cells”. Also, the IC50 in the data set with VRAC is 400 nM. In addition, in the data set on cancer cells, the “inhibition of cisplatin mediated apoptosis” value was “inhibit cisplatin mediated apoptosis”. For the same compound, in [11], the viability at 40 µM was ~57%.

As for `O=C1[O][Pt]2([NH][C@@H]3CCCC[C@H]3[NH]2)[O]C1=O` [OXP, oxaliplatin, reference compound], the cell viability result with HCT116 parental cells (OXP alone, 48 hours) is “dose-dependently decreased cell viability”.

`CCc1c2c(nc3ccc(O)cc13)-c1cc3c(c(=O)n1C2)COC(=O)[C@]3(O)CC` [SN-38, reference compound]: the cell viability result is recorded as “almost no effect on cell viability” in data set [5] (4 μM SN-38, 48 hours); “about 43 % of untreated cells” in data set [6] (0.1 μM SN-38, 48 hours); “about 50 % of untreated cells” with HCT116 parental cells (0.16 μM SN-38, 48 hours); “about 77 % of untreated cells” in the data set on HT29 parental cells (0.032 μM SN-38, 48 hours); “about 53 % of untreated cells” in the data set on LoVo parental cells (0.0064 μM SN-38, 48 hours); “about 78 % of untreated cells” in [9] (0.8 μM SN-38, 48 hours). For the same compound, in data set [10] (0.16 μM SN-38, 48 hours), the cell viability entry is listed as “about 78 % of untreated cells”.

`Cn1nnc2c(C(N)=O)ncn2c1=O` [temozolomide, reference compound]: the “signs of toxicity (subdued behaviour, hunched appearance, loss of body weight)” value in [4] (all animals treated with temozolomide 25 mg/kg/day) is reported as “Clear signs of toxicity”.

On to `O=C(Nc1cccc(C(F)(F)F)c1)Nc1ccc(Br)cc1-c1nnn[nH]1` [NS3623], for which, in the data set with VRAC, the IC50 was 1800 nM.

For `C[C@]12CC[C@@H]3c4ccc(O)cc4C[C@@H](CCCCCCCCC[S+]([O-])CCCC(F)(F)C(F)(F)F)[C@H]3[C@@H]1CC[C@@H]2O` (stereo partly drawn) [Fulvestrant, fulvestrant, reference compound], the cell viability entry in data set [8] (1 μM Fulvestrant, 72 hours) is “no effect on the cell viability”.

Consider `CC(=O)O[C@H]1C(=O)[C@@]2(C)[C@H]([C@H](OC(=O)c3ccccc3)[C@]3(O)C[C@H](OC(=O)[C@H](O)[C@@H](NC(=O)c4ccccc4)c4ccccc4)C(C)=C1C3(C)C)[C@]1(OC(C)=O)CO[C@@H]1C[C@@H]2O` [paclitaxel], for which the “tumour volume growth curves” value in data set [1] is given as “mild (non-significant) depression of the growth curves”.

As for `O=C(O)c1cc([N+](=O)[O-])ccc1NCCCc1ccccc1` [NPPB], in the data set on VRAC, the IC50 was 21000 nM.

Regarding `O=C(Nc1ccc([N+](=O)[O-])cc1)Nc1ccc(Br)cc1-c1nnn[nH]1` [NS3749], the IC50 in the data set with VRAC was 1400 nM.
